# Laboratory results published in patent US20240115709A1, “ASSEMBLY OF ORGANIC SUPRAMOLECULAR VESSELS FOR CONTROLLED DRUG RELEASE” (NOBLE PANACEA LABS, INC., priority 2021, published 2024).
# Where two headings read alike, the source gives them in different places.
# How the values were obtained:
# [1] = Solubility in water and solvents; format: physicochemical
# [2] = 20° C., reported value; cited from earlier work
# [3] = cited from earlier work
# [4] = Release/diffusion using Franz diffusion cell with artificial membrane; format: in vitro ADME; settings: control, OA only, within 4 hours
# [5] = Thermogravimetric analysis (thermal stability); format: physicochemical; settings: 250-380° C., argon atmosphere
# Experimental: The thermal stability of the γ-CD. γ-CDP and γ-CDP has been investigated (FIG. 4) using thermogravimetric analysis which was carried out in argon atmosphere. […] This weight loss may be associated to the decomposition of the ester functional groups attaching the aliphatic chains to the CD.
# Thermogravimetric (TGA, Netzsch) was carried out from room temperature to 400° C. at a ramping rate of 5° C. min−1 under an Ar flow.
compound,measurement,setting,value
NC(=O)c1cccnc1 [niacinamide],solubility in EtOAc upon addition of the CDOs,[1],increases significantly
same,solubility in EtOAc,[1]; alone,low solubility
CCCCCCCC/C=C\CCCCCCCC(=O)O [oleic acid],viscosity,[2],0.0348 Pa·s
Oc1ccc(C=Cc2cc(O)cc(O)c2)cc1 [resveratrol],solubility in water,[3],50 µg/mL
"O=C1O[C@H]([C@@H](O)CO)C([O-])=C1OP(=O)([O-])[O-].O=C1O[C@H]([C@@H](O)CO)C([O-])=C1OP(=O)([O-])[O-].[Mg+2].[Mg+2].[Mg+2] [magnesium ascorbyl phosphate (MgAsc), magnesium ascorbyl phosphate]",solubility in water,[3],8100 µg/mL
"CN(C)c1ccc2cc3ccc(N(C)C)cc3nc2c1.Cl [Orange Acridine hydrochloride (OA), Orange Acridine hydrochloride]",solubility in water,[3]; 23° C.,6000 µg/mL
same,diffusion through the membrane,[4],92%
"OC[C@H]1O[C@@H]2O[C@H]3[C@H](O)[C@@H](O)[C@@H](O[C@H]4[C@H](O)[C@@H](O)[C@@H](O[C@H]5[C@H](O)[C@@H](O)[C@@H](O[C@H]6[C@H](O)[C@@H](O)[C@@H](O[C@H]7[C@H](O)[C@@H](O)[C@@H](O[C@H]8[C@H](O)[C@@H](O)[C@@H](O[C@H]9[C@H](O)[C@@H](O)[C@@H](O[C@H]1[C@H](O)[C@H]2O)O[C@@H]9CO)O[C@@H]8CO)O[C@@H]7CO)O[C@@H]6CO)O[C@@H]5CO)O[C@@H]4CO)O[C@@H]3CO [γ-CD, γ-Cyclodextrin]",weight loss,[5],60%
Cc1c(C)c2c(c(C)c1O)CC[C@@](C)(CCC[C@H](C)CCC[C@H](C)CCCC(C)C)O2 [α-tocopherol],viscosity,[2],4.6 Pa·s
